Data: paper PMC5667506, “Potent and selective inhibition of SH3 domains with dirhodium metalloinhibitors” (Chemical Science, 2015)
Rh2(OAc)3 = dirhodium(II) triacetate, bound to the side-chain carboxylate

Key:
[1] = target: Fyn SH3 domain; set-up: method as in PMID 22621321; conditions: Fyn SH3, ITC; previously reported ref 52; cited from earlier work
[2] = target: T1, Lyn SH3 H78A mutant (Homo sapiens, UniProt P07948, H78A); assay: Binding to Lyn SH3 H78A mutant; conditions: read-out: affinity
T1 construct: The lyn SH3 domain was amplified by PCR using Phusion DNA polymerase; GST (N, cleaved yes); made in house; host or cells: E. coli BL21 (DE3)
T1 sequence (P07948 63-123 H78A limits assumed): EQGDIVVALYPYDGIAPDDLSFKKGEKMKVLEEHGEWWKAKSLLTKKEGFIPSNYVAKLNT
Protocol: The remarkable 6 nM affinity, far stronger than that of any reported non-protein ligand for SH3 domains, led us to study the structural basis of the observed affinity. […] The H78A and H96A double mutant binds much more weakly (>5 μM). […] That the majority of the stabilization energy comes from the first histidine coordination is consistent with the negative cooperativity generally seen for axial coordination to rhodium(II): a second coordination in solution is roughly two orders of magnitude less favorable.[40]–[43]
Abl SH3 domain preparation. The abl SH3 domain was amplified by PCR using Phusion DNA polymerase (Finnzymes). The
reactions were performed following manufacture's protocol with Phusion HF buffer and 5% DMSO. Primers were designed as
follows: 5'-[…]-3' (BamHI site underlined) and a reverse primer, 5'-
-3' (EcoRI site underlined). The resultant product was digested with
BamHI and EcoRI and subcloned into BamHI-EcoRI sites of pGex-KTO. Confirmed PCR fidelity by sequencing.
Hck SH3 domain preparation. The hck SH3 domain was amplified by PCR using Phusion DNA polymerase (Finnzymes). The
Lyn SH3 domain preparation. The lyn SH3 domain was amplified by PCR using Phusion DNA polymerase (Finnzymes). The […]
assessed by SDS-PAGE using 12% Bis-Tris gels (Invitrogen). […]
concentrated, and aliquoted for storage at –80 °C. Concentration was determined using the absorbance at 280 nm (NanoDrop, […]

Row | Substance | Kd [1] | Kd [2]
1 | AcVELARRPLPPLPN-NH2 [S2E^Rh] | 769 nM | 
2 | AcVELARRPLPPLPN-NH2 (Ac-VE(Rh2(OAc)3)LARRPLPPLPN-NH2; also: metal complex: Glu2 carboxylate bound to dirhodium(II) triacetate) [S2E^Rh, rhodium(II) metallopeptide made from S2E peptide (Ac…-NH2) and Rh2(tfa)(OAc)3] |  | 20 nM
